In the OPERA property sets (Mansouri et al. 2018):

Details: for log10 biotransformation half-life (days) / log10 BCF: fish

Structure (SMILES)	melting point	boiling point	also measured
Cc1cc(C(C)(C)C)c(O)c(C)c1CC1=NCCN1	182 °C		
CN(C(=O)CN(CCO)CC(=O)N(C)C(C)(C)Cc1ccccc1)C(C)(C)Cc1ccccc1	104 °C		
CC(=O)[C@@]12O[C@](C)(c3ccccc3)O[C@@H]1C[C@H]1[C@@H]3CCC4=CC(=O)CC[C@]4(C)[C@H]3CC[C@@]12C	150 °C		
CC(C)=O	-96.5 °C	55.8 °C	log10 Henry constant (atm·m³/mol): -4.46; log10 Koa: 2.31; log10 vapour pressure (mmHg): 2.36; ready biodegradability: readily biodegradable
C/C=C/Cl	-117 °C	35.2 °C	log10 vapour pressure (mmHg): 2.71
O=[N+]([O-])Cc1ccccc1		226 °C	
Cc1cccc(O)c1[N+](=O)[O-]	37 °C		log10 Henry constant (atm·m³/mol): -5.51; log10 vapour pressure (mmHg): -1.43
C=C(C)C(=O)OCC(C)O (configuration not stated)			ready biodegradability: readily biodegradable
CCCC(N)=O	115 °C	216 °C	log10 vapour pressure (mmHg): -2.41
Clc1ccc(-c2cccc(Cl)c2Cl)cc1			log10 Henry constant (atm·m³/mol): -3.85; log10 biotransformation half-life (days): 2.16
BrC=C(Br)Br		164 °C	
O=C(Oc1ccccc1)Oc1ccccc1	83 °C	306 °C	log10 vapour pressure (mmHg): -3.82
FC(Cl)=C(Cl)Cl	-109 °C	71 °C	
Nc1cccc([N+](=O)[O-])c1N	158 °C		
N#C/C=C(\Cl)C#N	60.5 °C	172 °C	
Cc1ccccc1CC(C)C	-73.3 °C	196 °C	
ClCc1ccc(CCl)cc1	100 °C		
CCC(C)=O	-86.6 °C		log10 Henry constant (atm·m³/mol): -4.24; log10 Koa: 2.71; log10 vapour pressure (mmHg): 1.96; ready biodegradability: readily biodegradable
CCOC(=O)NC		170 °C	log10 vapour pressure (mmHg): -0.0435
CC1(C)C=CC=C(C(=O)O)C=C1	88.5 °C		
COc1ccc(Cl)nn1	84.5 °C		
COc1ccc2c(c1O)-c1c3c(cc4c1[C@H](C2)N(C)CC4)OCO3	200 °C		
C=CC(=O)OCC(CO)(COC(=O)C=C)COC(=O)C=C			ready biodegradability: not readily biodegradable
O=P(O)(O)CP(=O)(O)O	200 °C		
O=C(O)c1ccc(C(F)(F)F)cc1	220 °C		

Structure (SMILES)	melting point	boiling point	also measured
CCCCCCOc1ccccc1	-19 °C	240 °C	
COC(=O)c1ccc(OC)c(OC)c1	60.8 °C	283 °C	
CCCCSC	-97.8 °C	124 °C	log10 vapour pressure (mmHg): 1.19
ClCCCCCCCCCCCl	15.6 °C		
CCC(C)CCC(C)CC (configuration not stated)		161 °C	
CCOP(=S)(OCC)Oc1cc(C)nc(C(C)C)n1			log10 Henry constant (atm·m³/mol): -6.95; log10 Koc (L/kg): 2.75; log10 vapour pressure (mmHg): -4.05; ready biodegradability: not readily biodegradable; log10 BCF: 1.85; log10 biotransformation half-life (days): 0.07
CCCCC(C(N)=O)n1nnc2ccccc21 (configuration not stated)	118 °C		
Cc1cc(O)cc(O)c1C	136 °C	284 °C	
Oc1ccc(O)c(Br)c1	112 °C		
O=C(O)[C@@H]1CCCN1C(=O)OCc1ccccc1	77 °C		
CN(C)C=Nc1c(I)cc(I)c(CCC(=O)O)c1I	168 °C		
CCCC(=O)C(=O)CCC		168 °C	
C=CCCl	-134 °C	45.1 °C	log10 vapour pressure (mmHg): 2.57; ready biodegradability: readily biodegradable; log10 BCF: 0.7; log10 biotransformation half-life (days): -0.93
Clc1ccccn1	-46.5 °C	170 °C	log10 vapour pressure (mmHg): 0.338; ready biodegradability: not readily biodegradable; log10 BCF: 1.28; log10 biotransformation half-life (days): -0.85
Cl[Si](Cl)(c1ccccc1)c1ccccc1		305 °C	ready biodegradability: not readily biodegradable
CN1CCc2cc3c(cc2C(=O)Cc2ccc4c(c2C1)OCO4)OCO3	208 °C		
Nc1cccnc1	64.5 °C	252 °C	ready biodegradability: not readily biodegradable; log10 BCF: 0.32
CN1C(C(=O)Nc2ccccn2)=C(O)c2ccccc2S1(=O)=O	199 °C		
CCCCCCC(C(=O)OCC)C(=O)OCC		269 °C	
CC1CC(C)CC(C)C1 (mixture of isomers)		141 °C	
COC(CBr)OC		149 °C	
CC(Cl)(Cl)C(=O)Cl		118 °C	
C1CSCSC1	54 °C		
COC(=O)c1c(Cl)nn(C)c1S(=O)(=O)NC(=O)Nc1nc(OC)cc(OC)n1	176 °C		
CCCCCCN(CCCCCC)CCCCCC		262 °C	

Structure (SMILES)	melting point	boiling point	also measured
CC(C)c1cc(C(C)C)cc(C(C)C)c1	-7.4 °C	238 °C	
O=C(O)CCC(=O)c1ccc(C2CCCCC2)c(Cl)c1	163 °C		
OCCCC(F)(F)F		125 °C	
OC(C(F)(F)F)(C(F)(F)F)C(F)(F)F		45 °C	
CCCCC/C=C\C/C=C\C/C=C\C/C=C\CCCC(=O)O	-49.5 °C		
CC/C(=C(\c1ccccc1)c1ccc(OCCN(C)C)cc1)c1ccccc1	97 °C		
COC(=O)C=Cc1ccccc1	36 °C	260 °C	log10 vapour pressure (mmHg): -1.46
C=CCCC	-165 °C	29.9 °C	log10 Koa: 1.93; log10 vapour pressure (mmHg): 2.8
Brc1cccc2c1Oc1cccc(Br)c1O2	207 °C		log10 vapour pressure (mmHg): -5.95
CCC(=O)c1ccc2c(c1)N(CCCN(C)C)c1ccccc1S2	69.5 °C		
OCc1ccc(CO)cc1	118 °C		
FC(F)(F)C(F)(F)C(F)(C(F)(F)F)C(F)(F)C(F)(F)F	-115 °C	58.4 °C	
CCCC(C)CC (configuration not stated)	-119 °C	91 °C	log10 biodegradation half-life (days): 0.954; log10 vapour pressure (mmHg): 1.79
FC(Cl)C(Cl)Cl (configuration not stated)		102 °C	
Cc1cc2ccccc2cc1C	105 °C	268 °C	log10 Henry constant (atm·m³/mol): -3.04; log10 biodegradation half-life (days): 1.18; log10 vapour pressure (mmHg): -2.96; ready biodegradability: readily biodegradable; log10 biotransformation half-life (days): 0.03
Cn1c([N+](=O)[O-])cnc1COC(N)=O	168 °C		
C=C(CC(=O)O)C(=O)O	175 °C		ready biodegradability: readily biodegradable
ClC(COCC(Cl)C(Cl)(Cl)Cl)C(Cl)(Cl)Cl (configuration not stated)	-50 °C		ready biodegradability: not readily biodegradable; log10 BCF: 3.28
Oc1c(Cl)ccc(Cl)c1Cl	58 °C		
Oc1ccc2ncccc2c1	195 °C	360 °C	
NNC(=O)c1ccc(Cl)cc1	164 °C		
Nc1ccc(S(=O)(=O)c2ccc(NCC(=O)O)cc2)cc1	194 °C		
O=[N+]([O-])c1cccc(-c2ccccc2)c1	62 °C		
O=C1CCCCCC1=O	-40 °C		
CCC(C)(C)c1cc(O)c(C(C)(C)CC)cc1O	180 °C		

Structure (SMILES)	melting point	boiling point	also measured
CCCCCCC(C)C	-80.3 °C	143 °C	log10 biodegradation half-life (days): 0.699; log10 vapour pressure (mmHg): 0.793
ClCCBr	-16.7 °C	107 °C	log10 Henry constant (atm·m³/mol): -3.04; log10 vapour pressure (mmHg): 1.52
O=C(Cl)/C=C/C(=O)Cl		159 °C	log10 vapour pressure (mmHg): 0.316
Clc1ccc(C(Cl)c2ccccc2)cc1 (configuration not stated)			ready biodegradability: not readily biodegradable
CCC(=O)c1ccc2ccccc2c1	60 °C	313 °C	
CN(C)P(=O)(N(C)C)N(C)C	7.2 °C	232 °C	log10 vapour pressure (mmHg): -1.34; ready biodegradability: not readily biodegradable; log10 BCF: -0.3
C#CC(C)(C)N	18 °C	79.5 °C	
CCCNC(=O)NCCC	105 °C	255 °C	
O=C1c2ccccc2C(=O)C1c1ccc(F)cc1	120 °C		
NCCCCCCCCCCC(=O)O	191 °C		
Cc1cc(C(C)(C)C)c(O)c(C(C)(C)C)c1	71 °C	265 °C	log10 vapour pressure (mmHg): -2.29; ready biodegradability: readily biodegradable; log10 BCF: 3.03; log10 biotransformation half-life (days): 0.32
Clc1cccc2ncccc12	45 °C	256 °C	
BrCCCCOc1ccccc1	41 °C		
CC(C)S(=O)(=O)n1c(N)nc2ccc(/C(=N/O)c3ccccc3)cc21	198 °C		
C=C/C=C\CC1=C(C)[C@@H](OC(=O)[C@@H]2[C@@H](/C=C(\C)C(=O)OC)C2(C)C)CC1=O			log10 vapour pressure (mmHg): -6.4
CCCCC1CCCCC1	-74.7 °C	181 °C	log10 vapour pressure (mmHg): 0.119
CCCCCCC(=O)OC(=O)CCCCCC	-12.4 °C	270 °C	
CCCCCCCCCCCCCS		291 °C	log10 vapour pressure (mmHg): -3.16
CC(C)(C)SSC(C)(C)C	-5 °C		
CC(CN1C(=O)c2cccnc2Nc2ccccc21)N(C)C (configuration not stated)	122 °C		
C=C1C2CCC3C(CCC4C35CCC[C@]4(C)CN3CCO[C@H]35)(C2)[C@H]1O (some centres not stated)	120 °C		
ClC1c2ccccc2CCc2ccccc21	106 °C		
BrCCCCCBr	-39.5 °C	222 °C	
CCCCCCN	-22.9 °C	133 °C	log10 Henry constant (atm·m³/mol): -4.57; log10 vapour pressure (mmHg): 0.954; ready biodegradability: readily biodegradable
Clc1cccc2c(Cl)cccc12	107 °C		log10 Koa: 6.65

Structure (SMILES)	melting point	boiling point	also measured
COc1cc(O)c2c(=O)c(-c3ccc(O)cc3)coc2c1	240 °C		
Sc1ccccc1	-14.9 °C	169 °C	log10 vapour pressure (mmHg): 0.286; ready biodegradability: not readily biodegradable
O=C(c1ccc(F)cc1)C1CCN(CCn2c(=O)[nH]c3ccccc3c2=O)CC1	231 °C		
O=C(CCCN1CC=C(n2c(=O)[nH]c3ccccc32)CC1)c1ccc(F)cc1	146 °C		
COC(C)(OC)OC		108 °C	
COc1cccc2ccccc12		269 °C	ready biodegradability: not readily biodegradable; log10 BCF: 2.21; log10 biotransformation half-life (days): 0.39
CC(=O)OCCN(CCOC(C)=O)c1ccc(N=Nc2nc3ccc(Cl)cc3s2)c(NC(=O)c2ccccc2)c1			ready biodegradability: not readily biodegradable
Oc1ccc(O)cc1	172 °C	287 °C	log10 vapour pressure (mmHg): -4.62; ready biodegradability: readily biodegradable
CCCl	-139 °C	12.3 °C	log10 Henry constant (atm·m³/mol): -1.95; log10 vapour pressure (mmHg): 3; ready biodegradability: not readily biodegradable
O=C(OC(=O)C(F)(F)C(F)(F)F)C(F)(F)C(F)(F)F		73 °C	
FC(F)(F)C(=NOCC1OCCO1)c1ccc(Cl)cc1			log10 vapour pressure (mmHg): -3.55
CCC1(C)CC1	-130 °C	56.8 °C	
Clc1cc(Cl)c(-c2cccc(Cl)c2Cl)cc1Cl			log10 Henry constant (atm·m³/mol): -4.13; log10 Koc (L/kg): 5.69; log10 biotransformation half-life (days): 2.55
CC(C)(C)C	-16.4 °C	9.5 °C	log10 vapour pressure (mmHg): 3.11
CCOC(=O)CC(C)O (configuration not stated)		185 °C	
NCC(CC(=O)O)c1ccc(Cl)cc1 (configuration not stated)	207 °C		
ClCCCOCCCCl		216 °C	
Oc1ccc(Cl)c(Cl)c1Cl	83.5 °C		
OCC(CO)(CO)CO	260 °C		ready biodegradability: readily biodegradable; log10 BCF: 0.1
CC(C)CC(=O)OCC(COC(=O)CC(C)C)OC(=O)CC(C)C		332 °C	
CCOC(=O)c1cc2ccccc2[nH]1	124 °C		
CO/C=C(/C(=O)OC)c1ccccc1Oc1cc(Oc2ccccc2C#N)ncn1	116 °C		log10 vapour pressure (mmHg): -12.1
COC(=O)CCCl		156 °C	
CCCCCCC=O	-43.3 °C	153 °C	log10 Henry constant (atm·m³/mol): -3.57; log10 vapour pressure (mmHg): 0.546
C=C(Cl)C(Cl)CCl (configuration not stated)		155 °C	log10 vapour pressure (mmHg): 0.274
